Test results published in patent US20150216865A1, “METHODS OF TREATING A BRUTON'S TYROSINE KINASE DISEASE OR DISORDER” (Celgene Avilomics Research, Inc., priority 2012, published 2015).
Marks after values point to notes of the source that are not given here.

Key:
IL-6 = assay: Inflammatory chemokine and cytokine analysis in CIA mice, IL-6; format: in vivo, mouse
Text: (§1) Inflammatory Chemokine and Cytokine Analysis: At the termination of the CIA study, mice were sacrificed and blood was harvested via cardiac punch using EDTA as an anticoagulant. […] Levels of various mouse cytokines in plasma were quantified using Bioplex® Suspension Array System according to manufacturer's instruction (BioRad, mTNFa (171-G5023M), mIL-6 (171-G5007M), mKC (171-G5018M), mIFNg (171-G5017M), mIL-17 (Z60-00006Z2), mIL-1β (171-G5002M), mMCP-1 (171-G5019M).

male NOD mice [1] = assay: NOD mouse model of Sjogren's syndrome, glycaemia / incidence of diabetes; format: in vivo
Description: Non-Obese Diabetic Mouse (NOD) Model of Sjogren's Syndrome. Male Non Obese Diabetic (NOD) mice from the KWS BioTest NOD colony and male BALB/c mice were randomly allocated to experimental groups and allowed to acclimatise for one week prior to the beginning of the study. From six weeks of age, animals were treated according to the administration schedule in Table 5, below. Each group consisted of n=12 animals. The administration volume was 15 ml/kg from 6-12 weeks of age. The administration volume was then decreased to 10 ml/kg from 13-20 weeks of age. The vehicle was distilled water pH 3.0-3.5 for Group 7. […] Glycaemia. From fourteen weeks of age, animals were monitored weekly for signs of hyperglycaemia. A blood sample was taken from a superficial vein and the blood glucose level was measured using Free Style Optium glucose test strips (Abbott) and a Boots glucose reader. Glycaemia. Blood glucose was monitored once per week from 14 weeks of age. Animals with glycaemia equal to or greater than 11 mM on two consecutive weekly readings were considered diabetic.

KC = assay: Inflammatory chemokine and cytokine analysis in CIA mice, KC; format: in vivo, mouse
Text: as §1

TNF-a = assay: Inflammatory chemokine and cytokine analysis in CIA mice, TNF-a; format: in vivo, mouse
Description: Inflammatory Chemokine and Cytokine Analysis: At the termination of the CIA study, mice were sacrificed and blood was harvested via cardiac punch using EDTA as an anticoagulant. Following centrifugation, serum was diluted 1:4 with a mouse serum diluents kit (BioRad cat#171-305004). Levels of various mouse cytokines in plasma were quantified using Bioplex® Suspension Array System according to manufacturer's instruction (BioRad, mTNFa (171-G5023M), mIL-6 (171-G5007M), mKC (171-G5018M), mIFNg (171-G5017M), mIL-17 (Z60-00006Z2), mIL-1β (171-G5002M), mMCP-1 (171-G5019M).

[2] = NOD mouse model of Sjogren's syndrome, bodyweight; format: in vivo
Description: Non-Obese Diabetic Mouse (NOD) Model of Sjogren's Syndrome. Male Non Obese Diabetic (NOD) mice from the KWS BioTest NOD colony and male BALB/c mice were randomly allocated to experimental groups and allowed to acclimatise for one week prior to the beginning of the study. From six weeks of age, animals were treated according to the administration schedule in Table 5, below. Each group consisted of n=12 animals. The administration volume was 15 ml/kg from 6-12 weeks of age. The administration volume was then decreased to 10 ml/kg from 13-20 weeks of age. The vehicle was distilled water pH 3.0-3.5 for Group 7. […] Animals were weighed at the start of the study (Day 0) and once per week until termination. […] Bodyweight data, expressed in grams, were analysed by two-way ANOVA followed by Dunnett's post-test for multiple comparisons to the vehicle-treated group and presented as mean bodyweights for each group (FIG. 12). Bodyweight data, expressed as a percentage of the initial bodyweight, were analysed by two-way ANOVA followed by Dunnett's post-test for multiple comparisons to the vehicle-treated group and presented as mean percentage of the initial bodyweight ±SEM (FIG. 13).

male NOD mice [3] = assay: NOD mouse model, salivary gland secretion (pilocarpine-induced salivation assay); format: in vivo; details: all treatment groups
Description: Non-Obese Diabetic Mouse (NOD) Model of Sjogren's Syndrome. Male Non Obese Diabetic (NOD) mice from the KWS BioTest NOD colony and male BALB/c mice were randomly allocated to experimental groups and allowed to acclimatise for one week prior to the beginning of the study. From six weeks of age, animals were treated according to the administration schedule in Table 5, below. Each group consisted of n=12 animals. The administration volume was 15 ml/kg from 6-12 weeks of age. The administration volume was then decreased to 10 ml/kg from 13-20 weeks of age. The vehicle was distilled water pH 3.0-3.5 for Group 7. The vehicle was 0.5% methylcellulose and 0.25% Tween® 80 for all other groups.
Measurement of salivary gland secretion. Salivary gland secretion was measured every other week from six weeks of age. […] The weight of saliva collected was then measured using digital scales. […]
Salivary Gland Secretion. Salivary gland secretion was measured using the pilocarpine-induced salivation assay. Data are expressed as milligram of saliva per gram bodyweight. Data from this readout are indicative of inflammatory changes in the salivary glands, but significant changes are typically only seen from weeks 18 onwards in NOD mice. […] Data were analysed by two-way ANOVA followed by Dunnett's post-test for multiple comparisons to the vehicle-treated group (FIG. 16).

## C=CC(=O)Nc1cccc(Nc2nc(Nc3ccc(OCCOC)cc3)ncc2F)c1 [Compound 1 besylate, N-(3-(5-fluoro-2-(4-(2-methoxyethoxyl)phenylamino)pyrimidin-4-ylamino)phenyl)acrylamide besylate]
IL-6; 3 mg/kg
  IL-6 mean: 15.4 pg/mL
IL-6; 10 mg/kg
  IL-6 mean: 9.1* pg/mL
IL-6; 30 mg/lkg
  IL-6 mean: 10.5* pg/mL
Male NOD mice [1]; 0.16 mg/kg ad libitum, age 18 weeks
  Incidence of Diabetes: 8% (1/12)
Male NOD mice [1]; 0.16 mg/kg ad libitum, age 19 weeks
  Incidence of Diabetes: 17% (2/12)
Male NOD mice [1]; 0.16 mg/kg ad libitum, age 20 weeks
  Incidence of Diabetes: 17% (2/12)
Male NOD mice [1]; 10 mg/kg SID, age 18 weeks
  Incidence of Diabetes: 17% (2/12)
Male NOD mice [1]; 10 mg/kg SID, age 19 weeks
  Incidence of Diabetes: 17% (2/12)
Male NOD mice [1]; 10 mg/kg SID, age 20 weeks
  Incidence of Diabetes: 18% (2/11)
Male NOD mice [1]; 30 mg/kg SID, age 18 weeks
  Incidence of Diabetes: 0
Male NOD mice [1]; 30 mg/kg SID, age 19 weeks
  Incidence of Diabetes: 0
Male NOD mice [1]; 30 mg/kg SID, age 20 weeks
  Incidence of Diabetes: 0
Male NOD mice [1]; 50 mg/kg BID, age 18 weeks
  Incidence of Diabetes: 0
Male NOD mice [1]; 50 mg/kg BID, age 19 weeks
  Incidence of Diabetes: 0
Male NOD mice [1]; 50 mg/kg BID, age 20 weeks
  Incidence of Diabetes: 0
Male NOD mice [1]; 100 mg/kg SID, age 18 weeks
  Incidence of Diabetes: 0
Male NOD mice [1]; 100 mg/kg SID, age 19 weeks
  Incidence of Diabetes: 0
Male NOD mice [1]; 100 mg/kg SID, age 20 weeks
  Incidence of Diabetes: 0
KC; 3 mg/kg
  KC mean: 62.0 pg/mL
KC; 10 mg/kg
  KC mean: 31.1* pg/mL
KC; 30 mg/lkg
  KC mean: 17.5* pg/mL
TNF-a; 3 mg/kg
  TNF-a mean: 160.2 pg/mL
TNF-a; 10 mg/kg
  TNF-a mean: 123.0* pg/mL
TNF-a; 30 mg/lkg
  TNF-a mean: 117.0* pg/mL
[2]; 10 mg/kg SID, 8 weeks and 10 to 20 weeks of age
  bodyweight gain (% of initial bodyweight) vs vehicle-treated group: significant reduction in bodyweight gain
[2]; 10 mg/kg SID, at 13, 17, 19 and 20 weeks of age
  bodyweight (grams) vs vehicle-treated group: significant decrease in bodyweight
[2]; 30 mg/kg SID, 11 to 20 weeks of age
  bodyweight gain (% of initial bodyweight) vs vehicle-treated group: significant reduction in bodyweight gain
[2]; 30 mg/kg SID, from 14 to 20 weeks of age
  bodyweight (grams) vs vehicle-treated group: significant decrease in bodyweight
[2]; 50 mg/kg twice daily, 10 to 20 weeks of age
  bodyweight gain (% of initial bodyweight) vs vehicle-treated group: significant reduction in bodyweight gain
[2]; 50 mg/kg twice daily, from 11 to 20 weeks of age
  bodyweight (grams) vs vehicle-treated group: highly significant decrease in bodyweight
[2]; 100 mg/kg SID, 8 weeks and 10 to 20 weeks of age
  bodyweight gain (% of initial bodyweight) vs vehicle-treated group: significant reduction in bodyweight gain
[2]; ad libitum 0.16 mg/ml in drinking water, 8 to 20 weeks of age
  bodyweight gain (% of initial bodyweight) vs vehicle-treated group: highly significant reduction in bodyweight gain
[2]; ad libitum 0.16 mg/ml in drinking water, 8 weeks and 10 to 20 weeks of age
  bodyweight (grams) vs vehicle-treated group: highly significant decrease in bodyweight
Male NOD mice [3]
  salivary gland secretion between groups: No significant differences
